Results reported in ChEMBL document CHEMBL4706534, “1,2,3-Triazole-containing hybrids with potential antibacterial activity against methicillin-resistant Staphylococcus aureus (MRSA)” (Eur J Med Chem, 2020).
In brackets after ≈: the same amount, converted by molar mass. Values belong to the compound of their own block, whether it stands above or below them.

Legend:
Staphylococcus aureus [1] = assay: Antibacterial activity against Methicillin-resistant Staphylococcus aureus ATCC 33591; assay type: functional, organism-based
Staphylococcus aureus [2] = assay: Antibacterial activity against Staphylococcus aureus ATCC 29213; assay type: functional, organism-based
Staphylococcus aureus [3] = assay: Antibacterial activity against Staphylococcus aureus NRS127 incubated for 18 hrs by CLSI-based two fold agar dilution method; assay type: functional
Staphylococcus aureus [4] = assay: Antibacterial activity against Staphylococcus aureus NRS121 incubated for 18 hrs by CLSI-based two fold agar dilution method; assay type: functional
Staphylococcus aureus [5] = assay: Antibacterial activity against Staphylococcus aureus NRS119 incubated for 18 hrs by CLSI-based two fold agar dilution method; assay type: functional
Staphylococcus aureus [6] = assay: Antibacterial activity against Staphylococcus aureus NRS271 incubated for 18 hrs by CLSI-based two fold agar dilution method; assay type: functional
Staphylococcus aureus [7] = assay: Antibacterial activity against Staphylococcus aureus C463 incubated for 18 hrs by CLSI-based two fold agar dilution method; assay type: functional
Enterococcus faecalis = assay: Antibacterial activity against Enterococcus faecalis; assay type: functional
Staphylococcus aureus [8] = assay: Antibacterial activity against methicillin-sensitive Staphylococcus aureus; assay type: functional
Enterococcus faecium = assay: Antibacterial activity against Enterococcus faecium; assay type: functional
Klebsiella aerogenes = assay: Antibacterial activity against Enterobacter aerogenes; assay type: functional
Proteus vulgaris = assay: Antibacterial activity against Proteus vulgaris; assay type: functional
Escherichia coli = assay: Antibacterial activity against Escherichia coli; assay type: functional
[9] = Cytotoxicity against CHO cells; assay type: cell-based, Cricetulus griseus; details: chinese hamster
Klebsiella pneumoniae = assay: Antibacterial activity against Klebsiella pneumoniae; assay type: functional
Enterobacter cloacae = assay: Antibacterial activity against Enterobacter cloacae; assay type: functional
[10] = test system: Staphylococcus epidermidis; assay: Antibacterial activity against methicillin-sensitive Staphylococcus epidermidis; assay type: functional
Providencia rettgeri = assay: Antibacterial activity against Providencia rettgeri; assay type: functional
Staphylococcus aureus [11] = assay: Antibacterial activity against methicillin-resistant Staphylococcus aureus; assay type: functional
Staphylococcus aureus [12] = assay: Antibacterial activity against methicillin-resistant Staphylococcus aureus ATCC 33591 measured after 18 hrs by CLSI-based broth microdilution method; assay type: functional
Staphylococcus aureus [13] = assay: Resistance index, ratio of MIC for antibacterial activity against Staphylococcus aureus ATCC 43300 incubated for 16 to 18 hrs by CLSI based assay to MIC for antibacterial activity against Staphylococcus aureus DSM 20231 incubated for 16 to 18 hrs by CLSI based assay; assay type: functional; details: time 16-18 hrs
Staphylococcus aureus [14] = assay: Antibacterial activity against methicillin-resistant Staphylococcus aureus ATCC 43300 incubated for 16 to 18 hrs by CLSI based assay; assay type: functional; details: time 16-18 hrs
Staphylococcus aureus [15] = assay: Antibacterial activity against Staphylococcus aureus DSM 20231 incubated for 16 to 18 hrs by CLSI based assay; assay type: functional; details: time 16-18 hrs
[16] = test system: Staphylococcus epidermidis; assay: Antibacterial activity against methicillin-resistant Staphylococcus epidermidis; assay type: functional
Staphylococcus aureus [17] = assay: microbe, parasite or virus in culture; details: 725
Staphylococcus aureus [18] = assay: microbe, parasite or virus in culture; details: 936
Staphylococcus aureus [19] = assay: Antibiofilm activity against methicillin-resistant Staphylococcus aureus ATCC BAA-44 incubated for 24 hrs by crystal violet-staining based assay; assay type: functional, organism-based; details: ATCC BAA-44, 24 h
Staphylococcus aureus [20] = assay: Antibiofilm activity against methicillin-resistant Staphylococcus aureus ATCC BAA-44 assessed as disruption of preformed biofilms incubated for 24 hrs by CV-staining based assay; assay type: functional, organism-based; details: ATCC BAA-44, 24 h
Staphylococcus aureus [21] = assay: Potentiation of oxacillin-induced antibacterial activity against methicillin-resistant Staphylococcus aureus ATCC BAA-44 assessed as reduction in oxacillin MIC preincubated for 30 mins followed by oxacillin addition and measured after 16 hrs by broth microdilution method; assay type: functional; details: time 16.5 hrs

Compound: COc1c(Cn2cc(-c3nnc(-c4ccccc4)o3)nn2)c(OC)c(OC)c(OC)c1OC
IC50 (Staphylococcus aureus [1]): 6.4 µg/mL (≈ 14.1 µM) | IC50 (Staphylococcus aureus [2]): 7 µg/mL (≈ 15.4 µM)

MIC (Staphylococcus aureus [3]): 16 µg/mL (≈ 37.3 µM) | MIC (Staphylococcus aureus [4]): 16 µg/mL (≈ 37.3 µM) | MIC (Staphylococcus aureus [5]): 16 µg/mL (≈ 37.3 µM) | MIC (Staphylococcus aureus [6]): 16 µg/mL (≈ 37.3 µM)
Compound: CC(=O)NC[C@H]1CN(c2ccc(N3C[C@H]4CC(n5ccnn5)C[C@H]4C3)c(F)c2)C(=O)O1 (some centres not stated)

MIC (Staphylococcus aureus [7]): 3.12 µg/mL (≈ 8.1 µM)
Compound: O=C1CC2CN(c3ccc(N4C[C@H](Cn5ccnn5)OC4=O)cc3F)CC2C1 (some centres not stated)

Compound: COc1c(N2C[C@@H]3CCCN(C(=O)Cn4cc(CN5C(=O)C(=O)c6ccccc65)nn4)[C@@H]3C2)c(F)cc2c(=O)c(C(=O)O)cn(C3CC3)c12
MIC (Enterococcus faecalis): ≤ 0.03 µg/mL | MIC (Staphylococcus aureus [8]): ≤ 0.03 µg/mL | MIC (Enterococcus faecium): ≤ 0.03 µg/mL | MIC (Klebsiella aerogenes): ≤ 0.03 µg/mL | MIC (Proteus vulgaris): ≤ 0.03 µg/mL | MIC (Escherichia coli): ≤ 0.03 µg/mL | CC50 [9]: 64 µg/mL (≈ 95.6 µM) | MIC (Klebsiella pneumoniae): ≤ 0.03 µg/mL | MIC (Enterobacter cloacae): ≤ 0.03 µg/mL | MIC [10]: ≤ 0.03 µg/mL | MIC (Providencia rettgeri): ≤ 0.03 µg/mL | MIC (Staphylococcus aureus [11]): 1 µg/mL (≈ 1.49 µM)

Compound: CC(=O)NC[C@H]1CN(c2ccc(N3CCN(C(=O)c4cn(C[C@H]5O[C@@H](n6cc(C)c(=O)[nH]c6=O)[C@H](O)[C@@H]5O)nn4)CC3)c(F)c2)C(=O)O1
MIC (Staphylococcus aureus [12]): 64 µg/mL (≈ 95.3 µM)

Compound: N=C(N)NCCC[C@H](NC(=O)[C@H](Cc1c[nH]c2ccccc12)NC(=O)[C@@H](N)CCCNC(=N)N)C(=O)N[C@@H](Cc1c[nH]c2ccccc12)C(=O)N[C@@H](CCCCn1cc(COc2cc(OCc3cn(CCCC[C@H](NC(=O)[C@H](Cc4c[nH]c5ccccc45)NC(=O)[C@H](CCCNC(=N)N)NC(=O)[C@H](Cc4c[nH]c5ccccc45)NC(=O)[C@@H](N)CCCNC(=N)N)C(N)=O)nn3)cc(OCc3cn(CCCC[C@H](NC(=O)[C@H](Cc4c[nH]c5ccccc45)NC(=O)[C@H](CCCNC(=N)N)NC(=O)[C@H](Cc4c[nH]c5ccccc45)NC(=O)[C@@H](N)CCCNC(=N)N)C(N)=O)nn3)c2)nn1)C(N)=O
Ratio (Staphylococcus aureus [13]): 0.5 | MIC (Staphylococcus aureus [14]): 2.7 µM (≈ 7.58 µg/mL) | MIC (Staphylococcus aureus [15]): 5.4 µM (≈ 15.2 µg/mL)

Compound: CC[C@@H](C(=O)[C@@H](C)[C@@H](O)[C@H](C)[C@@H]1O[C@@H]([C@@H](CC)C(=O)NCc2cn([C@H]3C[C@H](n4cc(F)c(=O)[nH]c4=O)O[C@@H]3CO)nn2)CC[C@@H]1C)[C@H]1O[C@]2(C=C[C@@H](O)[C@]3(CC[C@@](C)([C@H]4CC[C@](O)(CC)[C@H](C)O4)O3)O2)[C@H](C)C[C@@H]1C
MIC [16]: 32 µg/mL (≈ 30.2 µM) | MIC (Staphylococcus aureus [11]): 32 µg/mL (≈ 30.2 µM)

Compound: CO/N=C1\C(=O)N(Cc2cn(CC(=O)N3CCC[C@H]4CN(c5c(F)cc6c(=O)c(C(=O)O)cn(C7CC7)c6c5OC)C[C@H]43)nn2)c2ccc(C)cc21
MIC (Enterococcus faecalis): ≤ 0.03 µg/mL | MIC (Staphylococcus aureus [8]): ≤ 0.03 µg/mL | MIC (Enterococcus faecium): ≤ 0.03 µg/mL | MIC (Klebsiella aerogenes): ≤ 0.03 µg/mL | MIC (Proteus vulgaris): ≤ 0.03 µg/mL | MIC (Escherichia coli): ≤ 0.03 µg/mL | CC50 [9]: 32 µg/mL (≈ 44.9 µM) | MIC (Klebsiella pneumoniae): ≤ 0.03 µg/mL | MIC (Enterobacter cloacae): ≤ 0.03 µg/mL | MIC [10]: ≤ 0.03 µg/mL | MIC (Providencia rettgeri): ≤ 0.03 µg/mL | MIC (Staphylococcus aureus [11]): 1 µg/mL (≈ 1.4 µM)

Compound: Cc1nnc(SCC2=C(C(=O)O)N3C(=O)[C@@H](NC(=O)Cn4cnnn4)[C@H]3SC2)s1 [CEFAZOLIN SODIUM]
MIC (Staphylococcus aureus [17]): 32 µM | MIC (Staphylococcus aureus [18]): 8 µM

Compound: CCCCCCc1ccc(C(=O)NCCn2cc(CCCCCc3c[nH]c(N)n3)nn2)cc1
IC50 (Staphylococcus aureus [19]): 700 nM | EC50 (Staphylococcus aureus [20]): 900 nM | fold change (FC) (Staphylococcus aureus [21]): 64
